Experiments:
[1] = target: Adenylate cyclase type 5 (Rattus norvegicus) (UniProt Q04400); assay: Intrinsic activity measured as ability to stimulate dopamine sensitive Adenylate cyclase activity was measured in rat striatum.; format: functional, tissue-based
[2] = target: D(1A) dopamine receptor (Rattus norvegicus) (UniProt P18901); assay: Binding affinity for dopamine receptor D1 in rat striatal homogenate
[3] = target: D(2) dopamine receptor (Rattus norvegicus) (UniProt P61169); assay: Binding affinity for Dopamine receptor D2 of rat striatal homogenate
[4] = target: Dopamine receptors; D1 & D2 (Rattus norvegicus) (UniProt P18901+P61169); assay: Relative binding affinity for dopamine receptors D1 and D2 in rat striatal homogenates

Chain of Adenylate cyclase type 5 (Rattus norvegicus) (Q04400 whole entry): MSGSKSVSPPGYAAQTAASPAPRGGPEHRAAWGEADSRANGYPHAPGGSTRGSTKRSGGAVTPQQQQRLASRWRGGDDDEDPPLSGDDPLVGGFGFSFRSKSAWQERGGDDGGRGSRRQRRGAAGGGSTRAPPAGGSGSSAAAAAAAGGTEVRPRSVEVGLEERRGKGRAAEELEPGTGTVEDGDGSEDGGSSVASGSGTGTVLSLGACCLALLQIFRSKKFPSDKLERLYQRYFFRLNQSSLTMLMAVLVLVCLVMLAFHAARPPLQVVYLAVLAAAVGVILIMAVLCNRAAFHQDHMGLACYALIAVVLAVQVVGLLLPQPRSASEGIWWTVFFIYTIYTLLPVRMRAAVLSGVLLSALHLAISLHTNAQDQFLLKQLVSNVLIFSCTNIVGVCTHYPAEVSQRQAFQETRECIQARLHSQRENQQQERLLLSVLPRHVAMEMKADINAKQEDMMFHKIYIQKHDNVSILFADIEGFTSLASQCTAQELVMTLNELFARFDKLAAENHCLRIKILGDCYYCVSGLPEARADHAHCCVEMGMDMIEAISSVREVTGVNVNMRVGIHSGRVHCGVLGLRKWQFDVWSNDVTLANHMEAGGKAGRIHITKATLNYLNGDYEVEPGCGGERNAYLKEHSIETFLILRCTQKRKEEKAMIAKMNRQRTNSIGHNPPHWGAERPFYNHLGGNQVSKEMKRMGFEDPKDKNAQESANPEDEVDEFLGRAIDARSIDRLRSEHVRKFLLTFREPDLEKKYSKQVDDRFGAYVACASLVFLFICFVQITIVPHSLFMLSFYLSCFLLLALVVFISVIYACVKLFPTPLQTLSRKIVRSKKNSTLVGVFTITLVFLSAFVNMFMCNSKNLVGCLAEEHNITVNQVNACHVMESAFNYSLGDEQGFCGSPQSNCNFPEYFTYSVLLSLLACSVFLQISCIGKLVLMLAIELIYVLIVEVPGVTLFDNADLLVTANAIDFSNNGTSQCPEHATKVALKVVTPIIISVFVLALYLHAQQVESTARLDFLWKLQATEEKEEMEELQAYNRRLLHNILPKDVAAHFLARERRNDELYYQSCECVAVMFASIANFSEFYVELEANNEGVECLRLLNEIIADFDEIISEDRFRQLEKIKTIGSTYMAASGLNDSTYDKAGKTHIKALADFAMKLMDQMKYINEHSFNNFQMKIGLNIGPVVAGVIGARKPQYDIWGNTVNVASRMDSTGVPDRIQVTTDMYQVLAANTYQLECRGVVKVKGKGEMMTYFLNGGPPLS
Chain of D(1A) dopamine receptor (Rattus norvegicus) (P18901 whole entry): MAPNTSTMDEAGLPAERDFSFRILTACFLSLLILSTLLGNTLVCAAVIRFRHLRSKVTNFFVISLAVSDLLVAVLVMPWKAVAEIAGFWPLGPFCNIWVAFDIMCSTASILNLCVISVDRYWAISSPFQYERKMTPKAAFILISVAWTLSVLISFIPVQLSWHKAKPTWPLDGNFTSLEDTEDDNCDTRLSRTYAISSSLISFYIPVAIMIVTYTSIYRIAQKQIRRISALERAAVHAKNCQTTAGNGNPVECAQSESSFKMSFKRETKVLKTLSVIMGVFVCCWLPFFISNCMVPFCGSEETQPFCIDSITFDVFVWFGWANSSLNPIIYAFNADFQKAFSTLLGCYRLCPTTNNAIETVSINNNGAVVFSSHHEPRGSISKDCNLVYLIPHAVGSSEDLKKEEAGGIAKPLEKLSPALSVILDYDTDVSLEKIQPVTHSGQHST
Chain of D(2) dopamine receptor (Rattus norvegicus) (P61169 whole entry): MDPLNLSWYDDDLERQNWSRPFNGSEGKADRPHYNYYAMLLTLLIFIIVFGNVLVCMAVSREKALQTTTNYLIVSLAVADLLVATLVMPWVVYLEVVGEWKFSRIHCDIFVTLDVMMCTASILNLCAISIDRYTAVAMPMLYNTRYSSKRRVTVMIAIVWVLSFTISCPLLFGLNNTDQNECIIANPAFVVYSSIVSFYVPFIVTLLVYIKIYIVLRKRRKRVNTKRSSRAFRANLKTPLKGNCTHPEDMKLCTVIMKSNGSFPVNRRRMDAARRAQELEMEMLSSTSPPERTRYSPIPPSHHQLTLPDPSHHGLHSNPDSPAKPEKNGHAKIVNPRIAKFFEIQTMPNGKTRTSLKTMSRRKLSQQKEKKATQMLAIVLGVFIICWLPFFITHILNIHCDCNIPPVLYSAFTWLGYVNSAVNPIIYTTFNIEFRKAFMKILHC

Molecule CCCN1Cc2ccccc2[C@@H]2c3cc(O)c(O)cc3CC[C@H]21 has an Intrinsic activity [1] of 40%, a K0.5 [2] of 180 nM and a K0.5 [3] of 25.7 nM.

Cc1ccc2c(c1)CN[C@@H]1CCc3cc(O)c(O)cc3[C@@H]21 gave an Intrinsic activity [1] of 105%, a K0.5 [2] of 5.06 nM and a K0.5 [3] of 18 nM. The Selectivity [4] was 3.6.

In the case of Oc1ccc2c(c1)CN[C@@H]1CCc3cc(O)c(O)cc3[C@@H]21, the Intrinsic activity [1] is reported as 104%, the K0.5 [2] is reported as 12.2 nM and the K0.5 [3] is reported as 53.6 nM. The Selectivity [4] was 4.4.

Oc1cc2c(cc1O)[C@H]1c3ccccc3CN[C@@H]1CC2 was tested, and the Intrinsic activity [1] was 95%.

Cc1ccc2c(c1)[C@@H]1c3cc(O)c(O)cc3CC[C@H]1NC2 was tested, and the Intrinsic activity [1] was 91% and the K0.5 [2] was 8.66 nM.

Oc1ccc2c(c1)[C@@H]1c3cc(O)c(O)cc3CC[C@H]1NC2 showed an Intrinsic activity [1] of 95%, a K0.5 [2] of 18.8 nM and a K0.5 [3] of 194 nM. It also gave a Selectivity [4] of 10.3.

Oc1cc2c(cc1O)[C@H]1c3cc(-c4ccccc4)ccc3CN[C@@H]1CC2 showed an Intrinsic activity [1] of 60%, a K0.5 [2] of 187 nM and a K0.5 [3] of 90.2 nM. The Selectivity [4] was 0.5.

In the case of Cc1cccc2c1CN[C@@H]1CCc3cc(O)c(O)cc3[C@@H]21, the Intrinsic activity [1] is reported as 80%, the K0.5 [2] is reported as 6.58 nM and the K0.5 [3] is reported as 18 nM. It also gave a Selectivity [4] of 2.7.

CCc1ccc2c(c1)[C@@H]1c3cc(O)c(O)cc3CC[C@H]1NC2 gave an Intrinsic activity [1] of 103%, a K0.5 [2] of 29.2 nM and a K0.5 [3] of 423 nM. It also gave a Selectivity [4] of 14.5.

CCCN1Cc2c(C)cccc2[C@@H]2c3cc(O)c(O)cc3CC[C@H]21 was tested, and the Intrinsic activity [1] was 89%, the K0.5 [2] was 23.4 nM and the K0.5 [3] was 9.01 nM.

O=c1[nH]c2ccccc2n1CCCN1CCC(n2c(=O)[nH]c3cc(Cl)ccc32)CC1 gave a K0.5 [2] of over 1000 nM, a K0.5 [3] of 1 nM and a Selectivity [4] of under 1000.

Work on CCCN1Cc2cc(C)ccc2[C@@H]2c3cc(O)c(O)cc3CC[C@H]21 yielded an Intrinsic activity [1] of 20%, a K0.5 [2] of 181 nM and a K0.5 [3] of 29.4 nM. It also gave a Selectivity [4] of 0.16.

In the case of CN1CCc2cc(Cl)c(O)cc2[C@@H](c2ccccc2)C1, the K0.5 [3] is reported as over 500 nM.

Reference: ChEMBL document CHEMBL1128688, “Synthesis and biological evaluation of a series of substituted benzo[a]phenanthridines as agonists at D1 and D2 dopamine receptors” (J Med Chem, 1995)
